From US20170232083A1, “METHODS OF DIAGNOSIS AND TREATMENT OF CELIAC DISEASE IN CHILDREN” (priority 2014, published 2017)

System: PBMC (polyclonal gluten-specific T cells) of paediatric and adult CD patients
Assay: IFN-γ ELISpot of PBMC after 3 day oral wheat challenge (SFU, % of maximal peptide response, dominance scores, EC50; Examples 5-6)
Assay type: cell-based, human
Settings: for Cross-reactive T cell response: following wheat challenge
[1] = subject I (3-5yrs/6-10yrs part)
[2] = subject J (3-5yrs/6-10yrs part)
[3] = subject K (3-5yrs/6-10yrs part)
[4] = subject V (3-5yrs/6-10yrs part)
[5] = subject W (3-5yrs/6-10yrs part)
[6] = subject Y (3-5yrs/6-10yrs part)
[7] = subject five (3-5yrs/6-10yrs part)
[8] = subject seven (3-5yrs/6-10yrs part)
[9] = subject six (3-5yrs/6-10yrs part)
[10] = subject ten (3-5yrs/6-10yrs part)
[11] = subject two (3-5yrs/6-10yrs part)

| Sequence | Cross-reactive T cell response (subject A, 11-17yrs) | Cross-reactive T cell response (subject D, 11-17yrs) | Cross-reactive T cell response (subject E, 11-17yrs) | Significant response as a percentage of maximal peptide SFU (subject F, 11-17yrs) | Cross-reactive T cell response (subject F, 11-17yrs) | Cross-reactive T cell response (subject G, 11-17yrs) | Cross-reactive T cell response (subject H) | Cross-reactive T cell response [1] | Significant response as a percentage of maximal peptide SFU (subject J) | Cross-reactive T cell response [2] | Cross-reactive T cell response [3] | Cross-reactive T cell response (subject P, 11-17yrs) | Significant response as a percentage of maximal peptide SFU (subject Q, 11-17yrs) | Cross-reactive T cell response (subject Q, 11-17yrs) | Significant response as a percentage of maximal peptide SFU (subject T, 11-17yrs) | Cross-reactive T cell response (subject T, 11-17yrs) | Cross-reactive T cell response (subject U, 11-17yrs) | Cross-reactive T cell response [4] | Cross-reactive T cell response [5] | Cross-reactive T cell response [6] | further results |
| --- | --- | --- | --- | --- | --- | --- | --- | --- | --- | --- | --- | --- | --- | --- | --- | --- | --- | --- | --- | --- | --- |
| QPEQPFPLQPEQPVP | 1 SFU | 0 SFU | 9 SFU | ′ (11-20% = ′) | 27 SFU | 2 SFU | 3 SFU | 1 SFU | (6-10% - ^) | 11 SFU | 8 SFU | 12 SFU | ′′ (21-40% = ′′) | 20 SFU | ′ (11-20% = ′) | 16 SFU | 9 SFU | 4 SFU | 4 SFU | 1 SFU | Cross-reactive T cell response [7]: 3 SFU; Cross-reactive T cell response (subject nine, 11-17yrs): 0 SFU; Significant response as a percentage of maximal peptide SFU (subject seven): + (>70% = +); Cross-reactive T cell response [8]: 19 SFU; Cross-reactive T cell response [9]: 2 SFU; Cross-reactive T cell response [10]: 8 SFU; Cross-reactive T cell response [11]: 6 SFU |
| QPFPQPEQELPLQ | 4 SFU | 7 SFU | 46 SFU | ′ (11-20% = ′) | 31 SFU | 1 SFU | 5 SFU | 6 SFU | ′′ (21-40% = ′′) | 57 SFU | 13 SFU | 17 SFU | ′ (11-20% = ′) | 14 SFU | ′′ (21-40% = ′′) | 36 SFU | 12 SFU | 7 SFU | 0 SFU | 0 SFU | Significant response as a percentage of maximal peptide SFU (subject E, 11-17yrs): ′′ (21-40% = ′′); Significant response as a percentage of maximal peptide SFU (subject K): ′ (11-20% = ′); Significant response as a percentage of maximal peptide SFU (subject U, 11-17yrs): ′ (11-20% = ′); Cross-reactive T cell response [7]: 33 SFU; Cross-reactive T cell response (subject nine, 11-17yrs): 1 SFU; Cross-reactive T cell response [8]: 8 SFU; Cross-reactive T cell response [9]: 5 SFU; Significant response as a percentage of maximal peptide SFU (subject ten): + (>70% = +); Cross-reactive T cell response [10]: 15 SFU; Cross-reactive T cell response [11]: 9 SFU |
| QPFPQPEQPFPLQ | 5 SFU | 16 SFU | 70 SFU | ′′ (21-40% = ′′) | 64 SFU | 10 SFU | 4 SFU | 13 SFU | ′′′ (41-70% = ′′′) | 88 SFU | 29 SFU | 21 SFU | + (>70% = +) | 83 SFU | + (>70% = +) | 94 SFU | 18 SFU | 22 SFU | 8 SFU | 9 SFU | Significant response as a percentage of maximal peptide SFU (subject D, 11-17yrs): ′′′ (41-70% = ′′′); Significant response as a percentage of maximal peptide SFU (subject E, 11-17yrs): ′′ (21-40% = ′′); Significant response as a percentage of maximal peptide SFU (subject G, 11-17yrs): ′′′ (41-70% = ′′′); Significant response as a percentage of maximal peptide SFU (subject I): + (>70% = +); Significant response as a percentage of maximal peptide SFU (subject K): ′′′ (41-70% = ′′′); Significant response as a percentage of maximal peptide SFU (subject U, 11-17yrs): ′′ (21-40% = ′′); Significant response as a percentage of maximal peptide SFU (subject V): ′′′ (41-70% = ′′′); Significant response as a percentage of maximal peptide SFU (subject five): + (>70% = +); Cross-reactive T cell response [7]: 45 SFU; Cross-reactive T cell response (subject nine, 11-17yrs): 0 SFU; Cross-reactive T cell response [8]: 6 SFU; Significant response as a percentage of maximal peptide SFU (subject six): + (>70% = +); Cross-reactive T cell response [9]: 12 SFU; Significant response as a percentage of maximal peptide SFU (subject ten): + (>70% = +); Cross-reactive T cell response [10]: 13 SFU; Significant response as a percentage of maximal peptide SFU (subject two): + (>70% = +); Cross-reactive T cell response [11]: 65 SFU |
| QPFPQPEQPFPQS | 4 SFU | 15 SFU | 46 SFU | ′ (11-20% = ′) | 35 SFU | 5 SFU | 4 SFU | 2 SFU | ′′ (21-40% = ′′) | 57 SFU | 18 SFU | 13 SFU | ′′′ (41-70% = ′′′) | 55 SFU | + (>70% = +) | 70 SFU | 27 SFU | 25 SFU | 6 SFU | 4 SFU | Significant response as a percentage of maximal peptide SFU (subject D, 11-17yrs): ′′′ (41-70% = ′′′); Significant response as a percentage of maximal peptide SFU (subject E, 11-17yrs): ′′ (21-40% = ′′); Significant response as a percentage of maximal peptide SFU (subject K): ′′ (21-40% = ′′); Significant response as a percentage of maximal peptide SFU (subject U, 11-17yrs): ′′ (21-40% = ′′); Significant response as a percentage of maximal peptide SFU (subject V): + (>70% = +); Significant response as a percentage of maximal peptide SFU (subject five): ′′′ (41-70% = ′′′); Cross-reactive T cell response [7]: 32 SFU; Cross-reactive T cell response (subject nine, 11-17yrs): 1 SFU; Significant response as a percentage of maximal peptide SFU (subject seven): ′′′ (41-70% = ′′′); Cross-reactive T cell response [8]: 11 SFU; Cross-reactive T cell response [9]: 7 SFU; Significant response as a percentage of maximal peptide SFU (subject ten): + (>70% = +); Cross-reactive T cell response [10]: 12 SFU; Significant response as a percentage of maximal peptide SFU (subject two): ′′′ (41-70% = ′′′); Cross-reactive T cell response [11]: 44 SFU |
